The source of these data is patent US6696433B2, “Use of sex steroids function modulators to treat wounds and fibrotic disorders” (Renovo Limited, priority 1996, dated 2004).

For one assay, the system named is elastase. Nature of the assay: Wound elastase activity: fibronectin zymography, immunoblotting and elastase substrate degradation. The assay is classed as in vivo, human. The note with it: day 7 wounds compared to placebo. The method, then:
Proteases responsible for fibronectin degradation were identified by zymography using fibronectin-containing acrylamide gels (12% acrylamide and 0.33 mg/ml fibronectin, Central Blood Products Ltd). Tissue samples were lyophilized and homogenized using a ground glass homogenizer containing 0.5 ml buffer (100 mM Tris/HCl, 6M Urea, 15 mM CaCl2, 0.25% Triton-X100, pH 7.4). After centrifugation at 11,000 rpm for 10 min at 4° C. samples (20 μg dry wt) were incubated for 30 min at 37° C. with 2× Laemmli sample buffer and subjected to electrophoresis under non-reducing conditions (Laemmli, 1970). After electrophoresis, the gels were washed twice with 2.5% Triton-X100 for 1 hr to remove SDS. The gels were briefly washed with double distilled water and incubated for 18 h at 37° C. in developing buffer containing 50 mM Tris/HCl, 150 mM NaCl and 5 mM CaCl2, pH 7.4. At the end of incubation the gels were stained with 0.5% Coomassie brilliant blue and destained. […]
Tissue samples (20 μg dry wt) and human neutrophil elastase (0.01-0.3 μg/ml) were incubated for up to 1 h at 37° C. in 200 μl of 0.1M Hepes buffer, pH 7.5, containing 0.5M NaCl, 10% dimethylsulfoxide and 0.1 mM elastase substrate (methoxysuccinyl-ala-ala-pro-val-p-nitroanilide; Calibiochem Co;). Substrate degradation was determined by measuring OD410 (Dynatech MR5000). […] Results were expressed as ng/ml elastase activity/20 μg dry wt.

Assay [1] concerns 4 mm punch biopsy wounds of the upper inner arm. Nature of the assay: Topical oestrogen patch clinical trial of wound healing in elderly men and women. The assay is classed as in vivo, human. The settings on record: for Collagen Quantities: oestradiol patch, DAY 80. More on the design: key to Collagen Quantities: +=minimal quantities; ++=less than normal skin; +++=similar to normal skin; ++++=greater than normal skin.

The test system of assay [2] is full thickness incisional wounds. Nature of the assay: Incisional wound healing in OVX and sham rats, histology at day 7 post-wounding. The assay is classed as in vivo, Female Sprague Dawley rats. The settings on record: day 7 wound from an intact female rat treated with oestrogen.

For the compound `C[C@]12CC[C@@H]3c4ccc(O)cc4CC[C@H]3[C@@H]1CC[C@@H]2O` [Oestrogen], the “elastase activity (synthetic elastase substrate degradation assay)” value in the assay on elastase is recorded as “significantly reduced”. Moreover, the “Collagen Quantities” value in assay [1] (FEMALES (3A)) and in assay [1] (MALES (3C)) was “++++” each time. Further, the Collagen levels entry in assay [1] (day 7 and day 80 post-wounding, both sexes (3A and 3C) compared to placebo) is “consistently increased”. In addition, the “wound healing in stained sections (FIG. 1 c)” value in assay [2] is listed as “improved wound healing”.
